A melting point compilation (Tetko et al.; mined from patent text by program, amines drawn as free bases though some values may be those of a salt)

melting point [°C]	SMILES
130 to 140	O=C(c1ccc(-c2ccn(C(=O)Cc3ccc(Cl)cc3Cl)n2)cc1)N1Cc2cccn2Cc2ccccc21
110 to 111	COC(=O)c1[nH]c2c(Cl)ccc(Cl)c2c1C
105 to 107	CCc1oc2cccc(O)c2c1C
129 to 131	CCOC(=O)CCc1cc(OCC(=O)O)nn1Cc1ccc(Cl)cc1Cl
114 to 116	COc1ccc2cc(C=CC(C)=O)ccc2c1
135 to 139	COc1cc(C(OC(C)=O)C(=O)O)cc(OC)c1OC (stereo unspecified)
238 to 241	CC1(C)CCCC(C)(C)N1Cc1ccc2cc(NC(=O)c3ccc(-c4ccc(F)cc4)cc3)ccc2c1
106	COC(=O)C1(CCN(C)C)c2ccccc2N(C)c2ccc(Cl)cc21 (stereo unspecified)
150 to 151	O=C1CCC(O)(c2nc3ccccc3s2)C(Sc2ccccc2)(Sc2ccccc2)C1 (stereo unspecified)
93 to 95	COC(=O)c1c(OC(C)=O)cc(CBr)cc1OC(C)=O
177 to 181	O=CNNC(=O)N1Cc2ccccc2Oc2ccc(Cl)cc21
123 to 125	CC(C(=S)c1ccnc(NC=O)c1)S(C)=O (stereo unspecified)
157 to 159	CC[C@H]1COC(=O)N1c1nc(-c2ccc(C#N)cc2)c(F)s1
98	CC(CO)c1ccc2nc(-c3ccccc3)oc2c1 (stereo unspecified)
56 to 57	CCCCCCCCCCCCCCCCCC(=O)NCC(COCCCCCCCCCCCCCCCC)COCc1ccccc1 (stereo unspecified)
136 to 137	COc1ccc([N+](=O)[O-])cc1N1CCN(C(=O)OC(C)(C)C)CC1
164 to 168	NC(=O)COCC(N)=S
127 to 132	COc1ccccc1Oc1c(Cl)nc(-c2cccc(OCc3ccccc3)c2)nc1Cl

melting point [°C]	SMILES
177 to 180	Cc1ccc(S(=O)(=O)N(CCN(CC(=O)O)S(=O)(=O)c2ccc(C)cc2)CCN(CC(=O)O)S(=O)(=O)c2ccc(C)cc2)cc1
57 to 58	CCC(=O)c1cc2c(cc1O)CCCC2
78	CC(NC(=S)NCC(COC(=O)C(C)(C)C)Cc1ccc(C(C)(C)C)cc1)c1ccc(NS(C)(=O)=O)c(F)c1 (stereo unspecified)
190 to 192	COc1cc2c(cc1-c1cccnc1)-c1c(Cl)c3c(n1CC2)C(=O)N(C(C)(C)C)CCCC3
213 to 215	CC1(C)CNc2cc3[nH]c(-c4cccnc4)nc3cc21
196 to 197	Cc1c(NC(=O)c2ccc(OCc3ccc(C(F)(F)F)cc3)cc2)ccc2cc(CN3CCCC3)cnc12
92 to 96	CC(C)(C)OC(=O)NCCc1ccc(Oc2cc(C#N)ccn2)cc1
156 to 158	CCOc1nn(-c2ccc(C(F)(F)F)cn2)cc1CCOc1cc(CC(=O)O)n(C)n1
168 to 170	Cc1ccc(Cl)cc1N1C(=O)CN(c2ccccc2)C1=S
218 to 220	Nc1c([N+](=O)[O-])cnn1-c1c(Cl)cc(Cl)cc1Cl
134 to 135	C=CCOC(=O)C1=C(C)NC(C)=C(C(=O)OCC)C1c1ccc(OC)c(OC)c1OC (stereo unspecified)
184 to 187	O=C(Nc1cc2ncc(CN3CCCC3)cc2cc1F)c1ccc(-c2ccc(OC(F)(F)F)cc2)cc1
177 to 179	CONC(=O)CC1=C(C)/C(=C/c2ccc(S(C)=O)cc2)c2ccc(F)cc21 (stereo unspecified)
112 to 115	COC(=O)CC1CCN(C(=O)C2CCN(c3ccc(C#N)cn3)CC2)CC1
281 to 282	C[C@@H](n1cnc2cc(-c3ccc(S(C)(=O)=O)cc3)sc2c1=O)[C@](O)(Cn1cncn1)c1ccc(F)cc1F
267 to 270	CC(C)Oc1ccc(-c2[nH]c(-c3ccc([N+](=O)[O-])cc3)nc2C(=O)Nc2nccs2)cc1
235	Cc1c(C(=O)Nc2ccc(N3CCN(C4CCOCC4)CC3)c(C#N)c2)cnn1-c1ccc(F)c(F)c1

Continued, compound first:

SMILES	melting point [°C]
COC(=O)C1C(c2ccccc2)C2(C(=O)OC)C(C)=NC1(C)CC2C[Si](C)(C)C (stereo unspecified)	152 to 155
Cc1c(S(C)(=O)=O)ccc(C(=O)O)c1Cl	230 to 231
Cc1nc2c(-c3cccc(N4CCN(C)CC4)c3)cnn2c(N)c1-c1ccc(F)cc1	204 to 206
COc1ccc(C2CC(c3ccc(O)cc3)C2)cc1 (stereo unspecified)	96 to 110
CC(C)NCC(O)COc1ncccc1Cl (stereo unspecified)	71 to 73
CCCc1c(OC)n2c3c(=O)n(C)c(=O)n(C)c3nc2n(Cc2ccccc2)c1=O	199 to 201
NC(=O)CCc1cc(-c2ccncc2)sc1-c1ccncc1	196
CCN1CC(=O)N(c2c(C(C)C)cccc2C(C)C)C1=S	159 to 161
O=C1CSC2CN=C(c3ccccc3)c3cc(Cl)ccc3N12 (stereo unspecified)	228 to 230
COc1cc2c3c(c1)nc(SCc1ccncc1)n3CCC2	99 to 101
COc1ccc(C(=O)C(=O)NC(C)C)s1	72 to 73
O=C1c2sccc2-n2cnc(-c3noc(CCl)n3)c2[C@@H]2CCN12	210 to 213
O=C(O)C1OCC(O)C(O)C1O (stereo unspecified)	194 to 196
COc1cc(Nc2nc3cccc(-c4ccc(C#N)cc4)c3o2)cc(OC)c1OC	222 to 223
COc1ccc(C2OC2C(N)=O)cc1 (stereo unspecified)	142 to 144
CC(C)c1ccn2nc(S(=O)(=O)Cl)nc2n1	60 to 62
CSc1ccc(-c2nc3[nH]nc(N)c3c(=O)n2-c2ccc(C)c(C)c2)cc1	263 to 266
COC(=S)C(=Cc1ccccc1)N1CC(N2C(=O)c3ccccc3C2=O)C1=O (stereo unspecified)	170 to 171
O=[N+]([O-])c1ccc(CN2CC=C(/C=C/c3ccccc3)CC2)cc1	142 to 144
Cn1cc2c(nc(NC(=O)Nc3ccc(CC(=O)NCCOCCOCCNC(=O)OC(C)(C)C)cc3)n3nc(-c4ccco4)nc23)n1	157 to 165
CC(C)(C)OCC(=O)c1cnc(NC(=O)C(C)(C)C)cn1	138 to 140
CN1CCc2nc3ccc(Cl)cc3c(Oc3ccccc3)c2C1	182 to 184

SMILES	melting point [°C]
COc1cc(NC(C)=O)ccc1OCCO	157 to 159
CCC(=O)OCCc1ccc2c(c1)C(=O)c1ccccc1CO2	71.5 to 73.5
O=c1c(-c2cccc(F)c2)coc2c(O)c(O)ccc12	230
CC1(C)CC(N(CCCCCCN(c2nc(Cl)nc(Cl)n2)C2CC(C)(C)NC(C)(C)C2)c2nc(Cl)nc(Cl)n2)CC(C)(C)N1	161 to 163
CCCCSc1cc(C(=O)OC)cc(S(N)(=O)=O)c1Oc1ccccc1	122 to 123
CCOC(=O)C(Cc1cccc(OCC(F)(F)C(F)F)c1)C(=O)c1ccc(F)cc1 (stereo unspecified)	55 to 56
CC(C)(C)c1cc(C(CCc2ccccc2)NCP(=O)(O)O)cc(C(C)(C)C)c1O (stereo unspecified)	162 to 169
CC(C)(C)OC(=O)NC1CCC(=O)NC1=O (stereo unspecified)	214 to 215
CC1(C)CC=Nc2nc(N)c3ccccc3c21	253 to 260
CC(C)=CCCN1c2ccccc2CN1[N+](=O)[O-]	51 to 52
CS(=O)(=O)Nc1cccc(Nc2nc(NC3CN4CCC3CC4)c3nc[nH]c3n2)c1 (stereo unspecified)	200 to 204
O=[N+]([O-])c1ccc(-c2nc(-c3cccnc3)no2)cc1	163 to 166
COC(=O)C1=C(C)NC(c2cnc(Cl)s2)=NC1c1ccc(F)cc1Cl (stereo unspecified)	> 230
CN(C)C(=O)c1c(Oc2ccccc2)cccc1Oc1ccccc1	109 to 111
NC(=O)CNCC(=O)NCCCO	118 to 120
c1cc2c(cc1-c1nc(OCC3CC3)nc3cc4c(cc13)OCO4)OCO2	175 to 182
CC(=Cc1ccccc1)c1ncccc1C(N)=O	150 to 155
CCOC(=O)c1c(C2CCNCC2)[nH]c(-c2cccc(C(F)(F)F)c2)c1-c1ccncc1	233 to 235
COc1ccc(N2CCOCC2)c2sc(C(N)=S)nc12	238
CCCCS(=O)(=O)Nc1ccc(CCCCOCCCCCCNCC(O)c2ccc(O)c(CO)n2)cc1 (stereo unspecified)	55 to 57
CC(C)(C#N)c1ccc(C(=O)Nc2cn3cc(Cl)ccc3n2)cc1	248 to 250
c1ccc2c(c1)c1ccccc1n2-c1ccc(-c2ccc(-n3c4ccccc4c4ccccc43)cc2)cc1	280 to 281

SMILES	melting point [°C]
COC(=O)c1ccc(SC)c(N)c1	63 to 65
CC(C)COC(=O)C(N)C=CCP(=O)(O)O (stereo unspecified)	163 to 164
CC(C)(C)C(=O)N[C@H]1CC[C@H](CCN2CCN(c3nccc4c3CCO4)CC2)CC1	185
CCCCC1OC(=O)c2cc(C#N)ccc21 (stereo unspecified)	85 to 86
Nc1nc2ccccc2c2c1ncn2CCCCNC(=O)c1ccc(Oc2ccccc2)cc1	90.5 to 91.5
CNC(=O)Cc1cccc2c(=O)cc(C3=CCCCC3)oc12	213 to 214
COc1cc2c(c(OC)c1OC)CC(CCCCCCC1Cc3cc(OC)c(OC)c(OC)c3C1)C2 (stereo unspecified)	69 to 70
CCOc1nn(Cc2ccc(OCc3ccccc3)cc2)cc1CCC(=O)O	115 to 116
CC/C(=C(\c1ccc(/C=C/C(=O)O)cc1)c1ccc(OC(=O)CN(C)C)cc1)c1ccccc1	206 to 208
COC(=O)c1cc(Br)c(C#N)s1	102 to 103
O=C(CCl)NCC(CNC(=O)CCl)OC1CCCCO1 (stereo unspecified)	100
CCOC(=O)c1c(C=O)c2c(Cl)cc(Cl)cc2n1C(=O)OC(C)(C)C	141
CCCCc1ccc(OC)c(-c2csc(NC(=O)c3ccc(C(=O)CCN4CCC(NC(C)=O)C4)cc3)n2)c1 (stereo unspecified)	112
CN1c2ccccc2-c2nc3ccc(/C=C/C(N)=O)cc3c3cccc1c23	284 to 286
CC(F)(F)CCc1ccccc1S(N)(=O)=O	70 to 72
COc1cc2c(cc1CCC#N)C(=O)CC(C)(C)O2	105 to 107
Cc1c(C)c2c(c(C)c1N)C(c1ccc(F)cc1)C(C)(C)O2 (stereo unspecified)	126 to 127
Cc1[nH]c2ccc(OCCN3CCCC3c3cccnc3)cc2c1C(=O)OCc1ccccc1 (stereo unspecified)	126 to 127
CN1CC(CCCl)Oc2ccccc2C1=S (stereo unspecified)	105 to 108
Nc1ccc(C2=NNC(c3ccccn3)=NN2)nc1	158 to 160
CCCn1nc(OCc2ccccc2)cc1/C=C/C(=O)OCC	58 to 59
CC1OC(=O)c2c(O)cccc21 (stereo unspecified)	107 to 108
